Reference: US20180243465A1, “HEMOSTATIC MATERIAL” (BAXTER INTERNATIONAL INC., priority 2015, published 2018)
No end group written: not given here. PVA‑NB hydrogel particulates = not defined here

Columns and labels:
whole blood = test: Rotational thromboelastometry (ROTEM) of recalcified citrated whole blood; assay type: cell-based, human; settings: for clotting time (CT) vs saline control / clot formation time (CFT) vs saline control: 1 mM; for clotting time (CT) vs saline control: FIG. 8A; for clot formation time (CFT) vs saline control: FIG. 8B; for clotting time (CT) as % of the physiological CT: whole blood
Description: ROTEM (TEM Innovation, Germany) was applied to monitor the interactions of platelet-activating polymers and whole blood over time. ROTEM system contains an oscillating sensor pin that is immersed in a temperature-controlled cuvette containing the blood sample. Four measurements can be performed in parallel in the same device. Generally, coagulation of the citrated blood sample is initiated by re-calcification. The formation kinetics of a fibrin clot could be monitored mechanically and calculated by an integrated computer to the typical curves and numerical parameters.
Blood was collected from three un-medicated and healthy donors using minimal stasis from an antecubital vein through a 21-gauge needle. After discarding the first 3 ml, blood was collected in 3.5 ml tubes (Vacuette; Greiner Bio-One) containing 0.3 ml buffered 3.2% sodium citrate. The samples were kept on a pre-warming stage at 37° C. for at least 10 min prior to analysis and were processed within 3 h. ROTEM analysis of the whole blood sample was initiated by recalcification with the addition of 20 μl of CaCl2 (star-TEM®, 200 mM). Polymer solutions and/or polymer suspensions were added directly to the cuvette immediately after recalcification of the citrated blood and mixed by gently pipetting up and down as previously reported.^[21] The final reaction volume per ROTEM cuvette was 370 μl, consisting of 300 μl citrated whole blood, 20 μl CaCl2 and 50 μl polymer solution or polymer suspension.
We next studied the hemostatic efficacy of PVA-TRAP6 in comparison with TRAP6 and PVA-NB using rotational thromboelastometry (ROTEM),^[21, 22] which is a clinical diagnostic tool allowing in situ characterization of viscoelastic properties of blood clot during coagulation. […] Clotting time (CT) refers to the latency until the clot reaches a firmness of 2 mm while maximum clot firmness (MCF) refers to the maximum amplitude of the curve, which indicates the absolute strength of the clot.

platelets [1] = test: FACS analysis of platelet activation (CD41/CD62p co-expression); assay type: cell-based, human
Method: The blood of two unmedicated and healthy donors was collected and stabilized by sodium citrate. […] Twenty microliter of TRAP6-C solution (14 mg mL^−1) and/or 20 μL of NaCl solution (0.9%) were added as the positive control and the negative control, respectively. The incubated mixture was mixed with 300 μL of 1% paraformaldehyde for 15 min at room temperature. After washing and centrifugation a double immuno-staining was performed using 20 μL of phycoerythrin (PE) labeled monoclonal antibody directed against CD41 and 20 μL of allophycocyanin (APC) labeled monoclonal antibody directed against CD62P. Isotype controls were incubated with mouse IgG antibodies conjugated with APC or PE dye, respectively (all antibodies were purchased from BD Biosciences, Heidelberg, Germany). After 30 min incubation at room temperature the activation state of the platelets was determined using fluorescence flow cytometry. Expression of the platelet activation marker CD62P and the constitutively present platelet marker CD41 were detected using a Beckmann Coulter Cytomics FC-500 equipped with Uniphase Argon ion laser, 488 nm, 20 mW output. Overall 100 000 platelets were measured per sample and analyzed with the Cytomics CXP software. The experiment was repeated twice.
We next utilized flow cytometry (FACS) to quantify the extent of platelet activation. Platelets can be distinguished from other blood cells by the constitutive expression of the surface antigen CD41, which recognizes the platelet membrane glycoprotein GpIIb which is non-covalently associated with GpIIIa (the integrin beta 3 chain) to form the GpIIb/IIIa complex. Importantly, the CD62p (P-selectin) membrane glycoprotein is exclusively expressed on activated platelets. The CD62p marker was used to identify the extent of activation in human platelets after incubation with the studied materials (PVA-TRAP6, TRAP6, PVA-NB, and NaCl).

platelets [2] = test: Multiplate platelet aggregation assay in hirudinized whole blood; assay type: cell-based, human; settings: for aggregation area: 0.1 mM TRAP6 equivalent, 6 min measurement
Method: The principle of Multiplate test is based on the fact that platelets become sticky upon activation, and thus prone to adhere and aggregate on the metal sensor wires in the Multiplate test cuvette. The sensor wires are made of highly conductive copper, which is silver-coated. As activated platelets adhere and aggregate on the sensor wires, the electrical resistance between the wires rises, which can be monitored in real time. For each measurement, 300 μL of saline and 300 μL of hirudinized whole blood was added sequentially to a Multiplate cuvette. After 3 min incubation at 37° C., 20 μL of sample solution was added and at the same time the program started to collect signals. The Multiplate device allows 4 measurements in parallel. Each measurement was performed for 6 min and in duplicate.
In order to quantify the extent of platelet activation, we utilized Multiplate assay to investigate the influence of PVA-TRAP6, TRAP6 and PVA-NB on platelet aggregation. The principle of this method is based on the fact that platelets become sticky upon activation, and thus prone to adhere and aggregate on the metal sensor wires in the Multiplate test cuvette. As activated platelets adhere and aggregate on the sensor wires, the electrical resistance between the wires rises, which can be continuously monitored. […] One key parameter of Multiplate assay is aggregation area (in Units), i.e. the area underneath the aggregation curve.

platelets [3] = settings: from reference [12]; cited from earlier work

Method for C2C12 myoblasts: Cytotoxicities of PVA, PVA-NB and PVA-TRAP6 macromer solutions were evaluated via MTT assay. C2C12 cells were cultured in Dulbecco's Modified Eagles Medium (DMEM) supplemented with 5% fetal calf serum (FCS), 1% L-Glutamine, 1% Penicillin/Streptomycin (all from Sigma-Aldrich, Austria). Macromer solutions with three concentrations (5%, 1% and 0.1%) were prepared in DMEM culture medium. C2C12 cells were then seeded in a 96-well plate at a density of 5×10^3 cells per well in 200 μL of culture medium. After 24 h incubation (37° C., 5% CO2), 100 μL of the respective macromer solutions were added to the cells in triplicates. After 24 h incubation, cells were washed twice with sterile PBS before the addition of 100 μL thiazolyl blue tetrazolium bromide (MTT) working solution (5 mg/mL in PBS). After 1 h incubation, the liquid was discarded and 100 μl of DMSO was added to dissolve the formazan crystals. Finally, the absorbance was measured at 540 nm using a microplate reader.

Substance: PEG-TRAP6: PEG-10k-NHS reacted with the N-terminus of TRAP6, unreacted NHS groups blocked with glycine ({PEG 10 kDa}-SFLLRNPNC; also: unreacted NHS groups of PEG blocked with glycine) [reference compound]
- clotting time (CT) vs saline control (whole blood): this effect was lost
- clot formation time (CFT) vs saline control (whole blood): this effect was lost

Substance: PVA-TRAP6-P: insoluble crosslinked PVA-NB hydrogel particulates surface-functionalized with TRAP6-Cys peptide (SFLLRNPNC(PVA‑NB hydrogel particulates); reading uncertain)
- clotting time (CT) as % of the physiological CT (whole blood; particulate suspension 10 wt % in saline): ~50%
- platelet activation vs soluble TRAP6 control (FACS) (platelets [1]; particulates): comparable extent as soluble TRAP6 control
- percentage of activated platelets (CD41+/CD62p+) (platelets [1]; particulates, 15 min incubation, whole blood): ~55%

Substance: PVA-TRAP6: water-soluble conjugate of cysteine-containing TRAP6 peptide (SFLLRNPNC) on PVA-norbornene backbone by thiol-ene photo-click conjugation (SFLLRNPNC(PVA‑norbornene 22 kDa))
- clotting time (CT) (whole blood; 0.1 mM TRAP6 equivalent, compared with TRAP6 0.1 mM): very comparable to that of TRAP6
- maximum clot firmness (MCF) (whole blood; 0.1 mM, compared with TRAP6 control): relatively less than that of TRAP6 control
- clotting time (CT) vs saline control (whole blood): significantly shorten
- clot formation time (CFT) vs saline control (whole blood): significantly shorten
- clotting time (CT) as % of the physiological CT (whole blood; 0.1% PVA-TRAP6 solution): ~45%
- optimal hemostatic concentration (whole blood; peptide concentrations tested 0.01, 0.1, 1 mM, CT): 0.1 mM
- platelet activation (CD41/CD62P co-expression) (platelets [1]; 1 mM, FIG. 9B): very similar level as TRAP6 control
- CD41/CD62p co-expression (CD62p expression in CD41 positive cells) (platelets [1]; 15 min incubation, 0.1 mM, soluble system): ~80%
- platelet aggregation curve (platelets [2]; 0.1 mM): comparable to that of TRAP6
- aggregation area (platelets [2]): 130 U
- total platelet aggregation area (platelets [2]; 1 mM, FIG. 9A): comparable to that of TRAP6
- cytotoxicity (MTT assay) (C2C12 myoblasts): nontoxic

Substance: SFLLRN [TRAP6, reference compound]
- clotting time (CT) vs saline control (whole blood): significant decrease
- clot formation time (CFT) vs saline control (whole blood): significant decrease
- dose influence on CT (whole blood; peptide concentrations 0.01, 0.1, 1 mM): no significant dose influences
- aggregation area (platelets [2]): 147 U
- effective TRAP6-concentration for platelet activation (platelets [3]): 5 to 100 µM
